Results published in US6534491B2, “Preparation and use of ortho-sulfonamido bicyclic heteroaryl hydroxamic acids as matrix metalloproteinase and tace inhibitors” (priority 1996, dated 2003).
Counter-ions that a name gives are not always drawn. Like-named read-outs stand apart in the source and are kept apart here.

Assays:
[1] = target: T1, MMP-1 (Homo sapiens, UniProt P03956); settings: read-out: MMP-1 IC50
T1 sequence (P03956 100-469): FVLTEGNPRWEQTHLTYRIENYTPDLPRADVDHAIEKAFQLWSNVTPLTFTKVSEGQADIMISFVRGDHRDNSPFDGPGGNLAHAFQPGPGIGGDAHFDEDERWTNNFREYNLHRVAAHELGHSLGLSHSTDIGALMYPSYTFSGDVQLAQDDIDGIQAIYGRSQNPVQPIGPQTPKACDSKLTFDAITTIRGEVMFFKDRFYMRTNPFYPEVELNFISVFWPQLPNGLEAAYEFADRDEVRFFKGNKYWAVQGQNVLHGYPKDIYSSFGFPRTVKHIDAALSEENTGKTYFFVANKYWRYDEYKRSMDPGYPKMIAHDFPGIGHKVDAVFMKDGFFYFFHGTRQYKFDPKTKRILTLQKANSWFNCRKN

[2] = target: TACE (Homo sapiens, UniProt P78536); test: TACE inhibition (fluorescent peptidyl substrate); type: biochemical; settings: for inhibition at 1 µM: at 1 μM concentration, read-out: TACE % inhibition
TACE, sequence (P78536 215-824): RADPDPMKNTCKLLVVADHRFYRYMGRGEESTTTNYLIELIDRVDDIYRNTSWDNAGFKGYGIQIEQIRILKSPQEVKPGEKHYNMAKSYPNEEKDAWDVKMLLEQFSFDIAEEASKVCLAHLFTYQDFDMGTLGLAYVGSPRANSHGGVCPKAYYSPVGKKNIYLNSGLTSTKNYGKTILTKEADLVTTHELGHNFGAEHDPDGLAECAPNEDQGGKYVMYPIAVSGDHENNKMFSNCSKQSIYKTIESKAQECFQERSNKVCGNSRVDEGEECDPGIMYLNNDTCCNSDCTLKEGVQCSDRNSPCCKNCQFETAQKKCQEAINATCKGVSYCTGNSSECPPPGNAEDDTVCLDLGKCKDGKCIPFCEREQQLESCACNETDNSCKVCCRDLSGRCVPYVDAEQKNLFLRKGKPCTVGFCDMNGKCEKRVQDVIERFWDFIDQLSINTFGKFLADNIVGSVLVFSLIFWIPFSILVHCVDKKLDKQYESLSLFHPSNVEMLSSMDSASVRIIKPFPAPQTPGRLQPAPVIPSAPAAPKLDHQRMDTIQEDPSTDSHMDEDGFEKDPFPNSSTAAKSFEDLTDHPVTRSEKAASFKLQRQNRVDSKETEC
Method: Using 96-well black microtiter plates, each well receives a solution composed of 10 μL TACE (final concentration 1 μg/mL), 70 μL Tris buffer, pH 7.4 containing 10% glycerol (final concentration 10 mM), and 10 μL of test compound solution in DMSO (final concentration 1 μl M, DMSO concentration <1%) and incubated for 10 minutes at room temperature.
The reaction is read (excitation 340 nm, emission 420 nm) for 10 min. and the increase in fluorescence over time is plotted as a linear line. The slope of the line is calculated and represents the reaction rate.
The linearity of the reaction rate is confirmed (r^2>0.85). The mean (x±sem) of the control rate is calculated and compared for statistical significance (p<0.05) with drug-treated rates using Dunnett's multiple comparison test.

[3] = target: T2, MMP-13 (Homo sapiens, UniProt P45452); test: In vivo MMP inhibition test procedure (implanted dialysis tubing containing enzyme); set-up: species or system rat or mouse; settings: p.o. vs MMP-13
Method: A 2 cm piece of dialysis tubing (molecular weight cut-off 12-14,000, 10 mm flat width) containing matrix metalloproteinase enzyme (stromelysin, collagenase or gelatinase in 0.5 mL of buffer) is implanted either ip or sc (in the back) of a rat (Sprague-Dawley, 150-200 g) or mouse (CD-1, 25-50 g) under anesthesia. Drugs are administered PO, IP, SC or IV through a canula in the jugular vein. […] Contents of the dialysis tubing is collected and enzyme activity assayed.
Enzyme reaction rates for each dialysis tube are calculated. Tubes from at least 3 different animals are used to calculate the mean±sem. Statistical significance (p<0.05) of vehicle-treated animals versus drug-treated animals is determined by analysis of variance.

[4] = target: MMP-9 (Homo sapiens, UniProt P14780); test: MMP-9 inhibition (thiopeptide or fluorescent peptide substrate); type: biochemical; settings: read-out: MMP-9 IC50
MMP-9, sequence (P14780 94-707): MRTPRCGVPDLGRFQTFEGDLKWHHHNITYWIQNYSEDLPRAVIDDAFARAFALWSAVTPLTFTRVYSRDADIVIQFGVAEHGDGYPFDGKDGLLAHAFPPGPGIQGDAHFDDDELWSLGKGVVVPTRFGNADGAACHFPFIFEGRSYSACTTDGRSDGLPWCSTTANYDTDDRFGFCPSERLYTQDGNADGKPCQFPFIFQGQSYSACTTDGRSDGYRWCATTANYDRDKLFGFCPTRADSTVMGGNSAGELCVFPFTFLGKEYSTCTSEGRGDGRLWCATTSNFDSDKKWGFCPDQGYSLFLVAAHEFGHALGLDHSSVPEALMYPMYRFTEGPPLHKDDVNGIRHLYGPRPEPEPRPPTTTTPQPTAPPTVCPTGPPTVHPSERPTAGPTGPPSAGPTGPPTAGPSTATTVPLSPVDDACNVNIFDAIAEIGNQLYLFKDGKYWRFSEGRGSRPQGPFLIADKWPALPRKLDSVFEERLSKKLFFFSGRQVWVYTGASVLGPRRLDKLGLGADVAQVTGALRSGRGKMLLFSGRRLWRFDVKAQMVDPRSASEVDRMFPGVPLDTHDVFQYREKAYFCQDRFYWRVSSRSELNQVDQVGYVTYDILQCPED
Method: (§1) The enzyme activity is measured by the rate of the color increase. The thiopeptide substrate is made up fresh as a 20 mM stock in 100% DMSO and the DTNB is dissolved in 100% DMSO as a 100 mM stock and stored in the dark at room temperature. Both the substrate and DTNB are diluted together to 1 mM with substrate buffer (50 mM HEPES pH 7.5, 5 mM CaCl2) before use. The stock of enzyme is diluted with buffer (50 mM HEPES, pH 7.5, 5 mM CaCl2, 0.02% Brij) to the desired final concentration.
(§2) Alternatively, a fluorescent peptide substrate is used. In this test procedure, the peptide substrate contains a fluorescent group and a quenching group. Upon cleavage of the substrate by an MMP, the fluorescence that is generated is quantitated on the fluorescence plate reader. The assay is run in HCBC assay buffer (50 mM HEPES, pH 7.0, 5 mM Ca^+2, 0.02% Brij, 0.5% Cysteine), with human recombinant MMP-1, MMP-9, or MMP-13. The substrate is dissolved in methanol and stored frozen in 1 mM aliquots. For the assay, substrate and enzymes are diluted in HCBC buffer to the desired concentrations. Compounds are added to the 96 well plate containing enzyme and the reaction is started by the addition of substrate.
(§3) For either the thiopeptide or fluorescent peptide test procedures, the slope of the line is calculated and represents the reaction rate. The linearity of the reaction rate is confirmed (r^2>0.85). The mean (x±sem) of the control rate is calculated and compared for statistical significance (p<0.05) with drug-treated rates using Dunnett's multiple comparison test.

[5] = target: T2, MMP-13; test: MMP-13 inhibition (thiopeptide or fluorescent peptide substrate); type: biochemical
Method: as §1, §2, §3

[6] = target: T1, MMP-1; test: biochemical; settings: for IC50: MMP-1 IC50

Row | Molecule | IC50 [4] | melting point | IC50 [5] | IC50 [6] | other results
1 | 4-[(4-Methoxy-benzenesulfonyl)-pyridin-3-ylmethyl-amino]-8-thiophen-2-yl-quinoline-3-carboxylic acid hydroxyamide [Example 41] |  |  |  |  | IC50 [1]: 136 nM
2 | 4-[Methyl-(4-methoxy-benzenesulfonyl)-amino]-6-phenylethyl-quinoline-3-carboxylic acid hydroxyamide [Example 35] |  |  |  |  | IC50 [1]: 234 nM; IC50 [2]: 49 nM
3 | 4-{Methyl-(4-(pyridin-4-yloxy)-benzenesulfonyl]-amino}-6-iodo-quinoline-3-carboxylic acid hydroxyamide hydrochloride [Example 33] |  |  |  |  | IC50 [1]: 1010 nM
4 | 4-{[4-(4-Chlorophenyloxy)benzenesulfonyl]methylamino}-1,3-dimethyl-1H-pyrazolo[3,4-b]pyridine-5-carboxylic Acid, Hydroxyamide [Example 89] | 0.8 nM |  |  |  | in-vivo MMP % inhibition ([3]; dose 25 mg/kg): 6% (25); IC50 [1]: 116 nM; IC50 [2]: 356 ± 15 nM
5 | 4-{[4-(4-Chlorophenyloxy)benzenesulfonyl]methylamino}-3-methylisothiazolo[5,4-b]pyridine-5-carboxylic Acid Hydroxyamide [Example 90] |  |  |  |  | in-vivo MMP % inhibition ([3]; dose 25 mg/kg): 39% (25)
6 | Cc1nn(C)c2ncc(C(=O)NO)c(N(C)S(=O)(=O)c3ccc(Oc4ccncc4)cc3)c12 (as salt: hydrochloride) [91(HC1), 4-{Methyl-[4-(4-pyridinyloxy)benzenesulfonyl]amino}-1,3-dimethyl-1H-pyrazolo[3,4-b]pyridine-5-carboxylic Acid, Hydroxyamide] |  | 147 °C (dec.) |  |  | 
7 | CN(c1c(C(=O)NO)cnc2c1c(-c1ccccc1)nn2C)S(=O)(=O)c1ccc(Oc2ccncc2)cc1 (as salt: hydrochloride) [Example 93, 4-{Methyl-[4-(4-pyridinyloxy)benzenesulfonyl]amino}-1-methyl-3-phenyl-1H-pyrazolo[3,4-b]pyridine-5-carboxylic acid, Hydroxyamide] |  | 195 °C (dec.) |  |  | 
8 | Cc1noc2ncc(C(=O)NO)c(N(C)S(=O)(=O)c3ccc(Oc4ccncc4)cc3)c12 (as salt: hydrochloride) [Example 94, 4-{Methyl-[4-(4-pyridinyloxy)benzenesulfonyl]amino}-3-methylisoxazolo[5,4-b]pyridine-5-carboxylic acid, Hydroxyamide,] |  | 170 °C (dec.) |  |  | 
9 | COc1ccc(S(=O)(=O)N(Cc2cccnc2)c2c(C(=O)NO)cnc3snc(C)c23)cc1 (as salt: salt) [Example 86, 4-[(4-Methoxybenzenesulfonyl)pyridin-3-ylmethylamino]-3-methylisothiazolo[5,4-b]pyridine-5-carboxylic Acid, Hydroxyamide] |  | 224 °C (dec.) |  |  | 
10 | COc1ccc(S(=O)(=O)N(Cc2cccnc2)c2c(C(=O)NO)cnc3onc(C)c23)cc1 (as salt: salt) [Example 87, 4-[(4-Methoxybenzenesulfonyl)pyridin-3-ylmethylamino]-3-methylisoxazolo[5,4-b]pyridine-5-carboxylic Acid, Hydroxyamide] |  | 212 to 215 °C |  |  | 
11 | COc1ccc(S(=O)(=O)N(Cc2cccnc2)c2c(C(=O)NO)cnc3cc(C)nn23)cc1 (as salt: salt) [Example 88, 7-[(4-Methoxybenzenesulfonyl)pyridin-3-ylmethylamino]-2-methylpyrazolo[1,5-a]pyrimidine-6-carboxylic Acid, Hydroxyamide] |  | 170 °C (dec.) |  |  | 
12 | COc1ccc(S(=O)(=O)N(Cc2cccnc2)c2c(C(=O)NO)cnc3cc(C(F)(F)F)ccc23)cc1 [Example 16, 4-[(4-Methoxybenzenesulfonyl)-pyridin-3-ylmethylamino]-7-trifluoromethyl-quinoline-3-carboxylic acid hydroxyamide] | 6 nM |  | 3 nM |  | in-vivo MMP % inhibition ([3]; dose 100 mg/kg): 64% (100); inhibition at 1 µM [2]: 36%
13 | COc1ccc(S(=O)(=O)N(Cc2cccnc2)c2c(C(=O)NO)cnc3c(OC)cccc23)cc1 [Example 36, 4-[(4-Methoxy-benzenesulfonyl)-pyridin-3-ylmethyl-amino]-8-methoxy-quinoline-3-carboxylic acid hydroxyamide] | 2 nM |  | 1 nM |  | in-vivo MMP % inhibition ([3]; dose 50 mg/kg): 81% (50); IC50 [2]: 226 nM
14 | COc1ccc(S(=O)(=O)N(Cc2ccccc2)c2c(C(=O)NO)cnc3c2c(C)nn3C)cc1 [Example 52, 4-[Benzyl-(4-methoxybenzenesulfonyl)amino]-1,3-dimethyl-1H-pyrazolo[3,4-b]pyridine-5-carboxylic acid, hydroxyamide] | 2.4 nM |  | 1.4 nM | 45 nM | in-vivo MMP % inhibition ([3]; dose 100 mg/kg): 74% (100); IC50 [2]: 236 nM
15 | COc1ccc(S(=O)(=O)N(Cc2cccnc2)c2c(C(=O)NO)cnc3c2c(C)nn3C)cc1 [Example 60, 4-[(4-Methoxybenzenesulfonyl)pyridin-3-ylmethylamino]-1,3-dimethyl-1H-pyrazolo[3,4-b]pyridine-5-carboxylic acid, hydroxyamide] |  | 196 to 198 °C |  |  | 
16 | COc1ccc(S(=O)(=O)N(Cc2ccccc2)c2c(C(=O)NO)cnc3c2cnn3-c2ccccc2)cc1 [Example 62, 4-[Benzyl-(4-methoxybenzenesulfonyl)amino]-1-phenyl-1H-pyrazolo[3,4-b]pyridine-5-carboxylic acid, hydroxyamide] | 5.7 nM |  | 23 nM | 1240 nM | inhibition at 1 µM [2]: 46%
17 | COc1ccc(S(=O)(=O)N(Cc2ccccc2)c2c(C(=O)NO)cnc3c2c(C)nn3-c2ccccc2)cc1 [Example 66, 4-[Benzyl-(4-methoxybenzenesulfonyl)amino]-1-phenyl-3-methyl-1H-pyrazolo[3,4b]pyridine-5-carboxylic acid, hydroxyamide] | 0.81 nM |  | 0.27 nM | 512 nM | in-vivo MMP % inhibition ([3]; dose 25 mg/kg): 5% (25)
18 | COc1ccc(S(=O)(=O)N(Cc2cccnc2)c2c(C(=O)NO)cnc3onc(C)c23)cc1 [Example 87, 4-[(4-Methoxybenzenesulfonyl)pyridin-3-ylmethylamino]-3-methylisoxazolo[5,4-b]pyridine-5-carboxylic Acid, Hydroxyamide] | 8.9 nM |  | 10 nM | 111 nM | IC50 [2]: 147 ± 5 nM
19 | COc1ccc(S(=O)(=O)N(Cc2cccnc2)c2c(C(=O)NO)cnc3cc(C)nn23)cc1 [Example 88, 7-[(4-Methoxybenzenesulfonyl)pyridin-3-ylmethylamino]-2-methylpyrazolo[1,5-a]pyrimidine-6-carboxylic Acid, Hydroxyamide] | 10.4 nM |  | 18.7 nM | 643 nM | inhibition at 1 µM [2]: 40.5%
20 | Cc1nsc2ncc(C(=O)NO)c(N(C)S(=O)(=O)c3ccc(Oc4ccncc4)cc3)c12 [Example 92, 4-{Methyl-[4-(4-pyridinyloxy)benzenesulfonyl]amino}-3-methylisothiazolo[5,4-b]pyridine-5-carboxylic Acid, Hydroxyamide] | 12 nM | 146 °C (dec.) | 6.1 nM |  | in-vivo MMP % inhibition ([3]; dose 25 mg/kg): 30% (25); inhibition at 10 µM ([6]; read-out: MMP-1 % inhibition): 60.2%; IC50 [2]: > 1640 nM
21 | CN(c1c(C(=O)NO)cnc2c1c(-c1ccccc1)nn2C)S(=O)(=O)c1ccc(Oc2ccncc2)cc1 [Example 93, 4-{Methyl-[4-(4-pyridinyloxy)benzenesulfonyl]amino}-1-methyl-3-phenyl-1H-pyrazolo[3,4-b]pyridine-5-carboxylic acid, Hydroxyamide] | 10.1 nM |  | 3.9 nM | 8790 nM | in-vivo MMP % inhibition ([3]; dose 25 mg/kg): 49% (25); inhibition at 1 µM [2]: 34.9%
22 | Cc1noc2ncc(C(=O)NO)c(N(C)S(=O)(=O)c3ccc(Oc4ccncc4)cc3)c12 [Example 94, 4-{Methyl-[4-(4-pyridinyloxy)benzenesulfonyl]amino}-3-methylisoxazolo[5,4-b]pyridine-5-carboxylic acid, Hydroxyamide,] | 3 nM |  | 3.2 nM | 2550 nM | in-vivo MMP % inhibition ([3]; dose 25 mg/kg): 12% (25); inhibition at 1 µM [2]: 41.6%
